Among the test systems are SN12C renal; SF-539 CNS; UACC-257 melanoma; HCC-2998 colon; SW-620 colon; MDA-MB-231 breast; NCI-H23 lung; UO-31 renal; SK-MEL-28 melanoma; ACHN renal.
Assay in all cases: DTP human tumour cell line panel, 48 h

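96-well plates; 48 h exposure; 5 concentrations. Endpoints by linear interpolation between flanking doses. Not reached: highest tested concentration assigned. GI50 is the concentration that inhibits growth by half. TGI is the concentration that stops growth completely.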 Some results are limits rather than exact numbers.

The term TGI denotes the concentration giving total growth inhibition. Read a high TGI as lower sensitivity of the cells. For the molecule `CC(C)(C)OC(=O)NCC(=O)NC1C/C(=N\O)c2sccc21` (centres undefined), the TGI in the assay on SN12C renal, in the assay on SF-539 CNS, with UACC-257 melanoma, in the assay on HCC-2998 colon, in the assay on SW-620 colon and in the assay with MDA-MB-231 breast was above 100 µM throughout. Further, the concentration for total growth inhibition (TGI) in the assay on NCI-H23 lung, in the assay on UO-31 renal and with SK-MEL-28 melanoma was above 100 µM throughout.
Take `CC(=O)c1ccc(N2CCN(C3=CC(=O)c4c(O)ccc(O)c4C3=O)CC2)cc1`: the total growth inhibition concentration (TGI) in the assay on SF-539 CNS is above 100 µM; with UACC-257 melanoma it was above 100 µM; in the assay on HCC-2998 colon, above 100 µM; with SW-620 colon, above 100 µM; with MDA-MB-231 breast, 94.8 µM; in the assay with NCI-H23 lung, above 100 µM. The concentration for total growth inhibition (TGI) in the assay with UO-31 renal is 35.5 µM; with SK-MEL-28 melanoma it was above 100 µM.
With `COc1ccc2c(c1)CC1Cc3ccccc3CCN1C2` (centres undefined), the TGI with SN12C renal, in the assay on SF-539 CNS, with UACC-257 melanoma, in the assay on HCC-2998 colon, in the assay with SW-620 colon and with ACHN renal was above 100 µM each time. The concentration for total growth inhibition (TGI) was 63.6 µM in the assay on MDA-MB-231 breast, above 100 µM with NCI-H23 lung, above 100 µM in the assay on UO-31 renal and above 100 µM in the assay on SK-MEL-28 melanoma.
Regarding `CCNc1ncnc2c1nnn2CC`, the TGI with SN12C renal, with SF-539 CNS, in the assay with UACC-257 melanoma, in the assay with HCC-2998 colon, in the assay on SW-620 colon and in the assay with ACHN renal was above 100 µM each time. For the same molecule, the TGI with MDA-MB-231 breast, with NCI-H23 lung, in the assay with UO-31 renal and in the assay with SK-MEL-28 melanoma was above 100 µM each time.
Regarding `CN(/N=N/c1nc[nH]c1C(N)=O)C1CCCCC1`, the total growth inhibition concentration (TGI) in the assay on SN12C renal, with SF-539 CNS, in the assay with UACC-257 melanoma, in the assay with HCC-2998 colon, in the assay with SW-620 colon and with ACHN renal was above 100 µM throughout. The TGI in the assay with NCI-H23 lung and with SK-MEL-28 melanoma was above 100 µM throughout.
As to `CNC(=S)N/N=C(\C)c1nc2ncccc2[nH]1`, the TGI with SN12C renal, with SF-539 CNS, in the assay with UACC-257 melanoma, with HCC-2998 colon, with SW-620 colon and with ACHN renal was above 100 µM throughout. In addition, the TGI in the assay with MDA-MB-231 breast was above 100 µM; with UO-31 renal, 40.6 µM; in the assay with SK-MEL-28 melanoma it was above 100 µM.
Turning to `CCC(=O)NC(OCC1(CC)COC1)(C(F)(F)F)C(F)(F)F`, the TGI in the assay on SN12C renal, with SF-539 CNS, in the assay on UACC-257 melanoma, in the assay with HCC-2998 colon, in the assay on ACHN renal and with MDA-MB-231 breast was above 100 µM in each case. The concentration for total growth inhibition (TGI) with NCI-H23 lung, in the assay on UO-31 renal and in the assay on SK-MEL-28 melanoma was above 100 µM in each case.
As to `COc1ccc2c(c1OC)C(=O)O[C@@H]2[C@H]1c2cc3c(cc2CCN1C)OCO3`, the TGI in the assay with SN12C renal, in the assay on SF-539 CNS, with UACC-257 melanoma, with HCC-2998 colon, in the assay with SW-620 colon and in the assay with ACHN renal was above 100 µM each time. Moreover, the TGI with MDA-MB-231 breast, with NCI-H23 lung and in the assay with UO-31 renal was above 100 µM each time.
As for `COC(=O)C1=C(C)N(NC(=O)c2ccccc2)C2(O)CCCC(=O)C12C` (centres undefined), the concentration for total growth inhibition (TGI) with SN12C renal, in the assay with SF-539 CNS, with UACC-257 melanoma, in the assay with SW-620 colon, in the assay with ACHN renal and with NCI-H23 lung was above 100 µM throughout. In addition, the TGI with UO-31 renal and with SK-MEL-28 melanoma was above 100 µM throughout.
As usually defined, the GI50 is the concentration giving 50% growth inhibition. On to `COc1cc(OC)cc(-c2n/c(=C\c3c(O)[nH]c4ccc(Cl)cc34)cc3c2=Nc2ccccc2-3)c1`, for which the GI50 in the assay with SN12C renal was 3.73 µM; with SF-539 CNS, 20.4 µM; in the assay with UACC-257 melanoma, above 100 µM; with HCC-2998 colon, 4.22 µM; in the assay on SW-620 colon it was 2660 nM; in the assay on ACHN renal, 5.37 µM. Moreover, the GI50 is 2840 nM with MDA-MB-231 breast, 2340 nM with NCI-H23 lung, 12.5 µM in the assay on UO-31 renal and 29.3 µM with SK-MEL-28 melanoma. The TGI is 17.2 µM in the assay on SN12C renal; 45.8 µM in the assay on SF-539 CNS; above 100 µM in the assay on UACC-257 melanoma; 19.5 µM in the assay with HCC-2998 colon; 8 µM in the assay with SW-620 colon; 20.7 µM in the assay on ACHN renal. In addition, the total growth inhibition concentration (TGI) was 13.4 µM in the assay with MDA-MB-231 breast, 6.06 µM in the assay with NCI-H23 lung, 29.2 µM in the assay with UO-31 renal and above 100 µM in the assay with SK-MEL-28 melanoma.
With `C=CCC1(CC)C(=O)NC(=O)NC1=O`, the TGI with SN12C renal, with SF-539 CNS, in the assay on UACC-257 melanoma, in the assay with HCC-2998 colon, with SW-620 colon and in the assay on ACHN renal was above 100 µM throughout. Besides, the TGI in the assay with NCI-H23 lung, in the assay on UO-31 renal and in the assay on SK-MEL-28 melanoma was above 100 µM in each case.

The values are drawn from PubChem BioAssay (NCI).
